“And” between values parts separate entries of the source, which are not always exact repeats. Identical values can stand only once.
What was measured:
[1] = test system: HeLa cells; experiment: Depletion of intracellular GSH; format: cell-based, human; design: key to Intracellular GSH level after treatment (Supplementary Table S2): GSH content in fmol/cell; settings: for [GSH] after treatment / [GSH] depletion: HeLa cells, Pt drug 2 h, then fresh medium 24 h; for Intracellular GSH level after treatment (Supplementary Table S2): blank (before treatment) mean 12.88; for GSH-depletion: relative to blank (before treatment)
Procedure: Supplementary Tables 1-13 Supplementary Table 1. ICP-OES analysis of Pt in HeLa cells. a Pt drugs Pt element per cell Percentage of Pt element (fmol/cell) b taken up by cells (%) c P-CyPt 24.60 ± 3.5 36.9 ± 5.3 […] 1.73 ± 0.2 2.6 ± 0.3 CDDP 0.73 ± 0.09 1.1 ± 0.1 P-CyPt + Na3VO4 0.07 ± 0.01 0.1 ± 0.01 a HeLa cells were untreated or pre-treated with Na3VO4 (10 mM) for 20 min and then incubated with indicated Pt drug (10 μM) for 1 h. Then, the cells were trypsinized, collected, and the cell numbers were counted and digested with trace metal concentrated HNO3 (65~70%) and HCl (36~38%). The amount of Pt element was determined by ICP-OES. b Pt per cell represents the average amount of Pt element in one HeLa cell, which was calculated by dividing the total amount of Pt element in cells by the cell number. c Percentage of Pt taken up by cells was calculated by dividing the total amount of Pt elements in cells by the amount of Pt drugs added. Values denote mean ± s.d. (n = 3 independent experiments). Supplementary Table 2. Comparison of the intracellular GSH in HeLa cells before and after incubation with different Pt drugs. a Pt [GSH] before treatment [GSH] drugs (fmol/cell) [GSH] after treatment (fmol/cell) depletion b CDDP 11.81 ± 1.7 8.3% […] 11.71 ± 1.6 9.1% 12.88 ± 1.5 P-CyPt 8.07 ± 0.8 37.3% a HeLA cells were untreated or treated with different Pt drugs for 2 h. The cells were washed with PBS for three times, and replaced with fresh medium and incubated for another 24 h. After that, the cells were trypsinized, centrifuged and counted. The cell pellets were dispersed, lysed via sonication, and ultracentrifuged to obtain supernatant. The GSH content (nPt) in the supernatant was measured by a reported detection method. The content of GSH per cell ([GSH]) before and after treatment (nB and nA) was calculated according to the formula: […] GSH depletion: The GSH depletion (Δ) was calculated according to the formula: %Δ = (nB - nA)/ nB. Values denote mean ± s.d. (n = 3 independent experiments). 27 page 45: DNA […]-stained with 5x loading buffer in the TAE buffer and the resultant gel visualized by Gel DocTM XR+ (Bio-Rad) system. Depletion of intracellular GSH. HeLa cells (2×10^5 cells/well) in 2 mL DMEM medium were seeded onto 6-well plates and allowed to grow overnight. Then cells were then treated with […], or CDDP (10 μM), respectively. After that, cells were digested with trypsin and washed with PBS for 3 times. Then, cell pellets were dispersed in pre-chilled extraction solution (1 mL, 0.1 M potassium phosphate buffer containing 0.1% Triton, 0.6% sulfosalicylic acid, and 5 mM EDTA, pH 7.4) and sonicated with an US probe on ice for 2 min. To ensure that cells were lysed completely, the solution was further frozen and thawed twice. Finally, the solution was centrifuged at 3000 g at 4 °C for 4 min. The supernatant was taken to measure the GSH content using commercial GSH detection kit, according to a reported procedure (Nat. Protoc. 2006, 1, 3159). MCTS imaging and cytotoxicity. The three-dimensional multicellular spheroids (MCTS) of HeLa were cultured according to the method previously described (Nat. Protoc. 2009, 4, 309) with minor modifications. Briefly, a well of 96-well plates was covered by 50 μL of hot agarose solution (1.5 w/v %) and then cooled to form a layer of agaropectin. HeLa cells were seeded to the agaropectin-coated well at a density of 2×10^3 cells/well, and incubated to grow into spheroids. DMEM medium was replaced with fresh medium every 2 days until the diameter of tumor spheroids grows near 400 μm. Then, the MCSs were incubated with 10 μM P-CyPt or […] for 1 h, washed with PBS for 3 times. Blank DMEM medium was added, and incubated for another 24 h. After that, PI (4 μM) was added and incubated for 1 h. The medium was removed, and the spheroids were gently washed with PBS (×1), which was then carefully transferred to a glass bottom dish. […]

[2] = test system: s.c. HeLa tumors; experiment: Chemotherapy of s.c. HeLa tumors in vivo; design: species or system mice; settings: for tumor volume growth on day 21: s.c. HeLa, 2.25 mg kg^−1 Pt i.v. on day 0, 3, 6, 9, 12
Procedure: Sixteen mice with s.c. […] Each experiment was conducted in four mice.

| SMILES | [GSH] after treatment [1] [fmol/cell] | [GSH] depletion [1] | Intracellular GSH level after treatment (Supplementary Table S2) ([1]; individual samples) | Intracellular GSH level after treatment (Supplementary Table S2) ([1]; mean of 3 samples) | GSH-depletion [1] [%] | average tumor weight at end of treatment ([2]; day 21) | tumor volume growth on day 21 [2] |
| --- | --- | --- | --- | --- | --- | --- | --- |
| CC1(C)C(/C=C/C2=C3Oc4cc(OP(=O)(O)O)c(Cl)cc4C=C3CCC2)=[N+](CCCNC(=O)[C@@H](Cc2ccccc2)NC(=O)[C@@H](Cc2ccccc2)NC(=O)CCC(=O)[O][Pt]([NH2])([NH2])([OH])([Cl])[Cl])c2ccccc21 [P-CyPt] | 8.07 ± 0.8 | 37.3% and ~ 37.3% | 7.3478 and 7.9326 and 8.9304 | 8.07 | 37.30 | significantly smaller than the other three groups | no apparent tumor growth |
| [NH2][Pt]([NH2])([Cl])[Cl] [CDDP, cisplatin] | 11.81 ± 1.7 | 8.3% and ~ 8.3% | 10.2784 and 11.5154 and 13.6407 | 11.81 | 8.30 |  | ~ 15.8 fold |
